In PMC7092826 (Biochemical Pharmacology, 2008):
Values joined by “and” are separate entries in the source; they are usually repeats but may differ in a detail not shown here. Equal entries are not always repeated.

Key:
[1] = biological target: T1, SARS-CoV PLpro (Severe acute respiratory syndrome coronavirus, UniProt P0C6U8); experiment: biochemical; format: biochemical
[2] = biological target: T1, SARS-CoV PLpro; format: biochemical
[3] = biological target: T1, SARS-CoV PLpro; format: biochemical; remark: listed apart in the source
[4] = biological target: T1, SARS-CoV PLpro; experiment: biochemical; format: biochemical; settings: for Ki: Kis
[5] = biological target: T1, SARS-CoV PLpro; experiment: biochemical; format: biochemical; settings: for remaining activity at 200 µM: read-out: residual activity of PLpro
[6] = biological target: cathepsin B (Homo sapiens, UniProt P07858); format: biochemical
[7] = biological target: T2, cathepsin K (Homo sapiens, UniProt P43235); format: biochemical
T2 sequence (P43235 115-329): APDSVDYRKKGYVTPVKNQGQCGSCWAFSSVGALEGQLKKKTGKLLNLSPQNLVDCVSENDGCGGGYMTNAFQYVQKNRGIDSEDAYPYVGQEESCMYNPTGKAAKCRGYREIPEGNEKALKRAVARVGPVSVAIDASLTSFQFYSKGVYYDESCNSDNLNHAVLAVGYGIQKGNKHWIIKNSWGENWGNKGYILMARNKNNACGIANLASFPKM

[8] = biological target: cathepsin L (Homo sapiens, UniProt P07711); format: biochemical
[9] = biological target: cathepsin S (Homo sapiens, UniProt P25774); format: biochemical
[10] = biological target: T3, papain (Carica papaya, UniProt P00784); format: biochemical
T3 sequence (P00784 134-345): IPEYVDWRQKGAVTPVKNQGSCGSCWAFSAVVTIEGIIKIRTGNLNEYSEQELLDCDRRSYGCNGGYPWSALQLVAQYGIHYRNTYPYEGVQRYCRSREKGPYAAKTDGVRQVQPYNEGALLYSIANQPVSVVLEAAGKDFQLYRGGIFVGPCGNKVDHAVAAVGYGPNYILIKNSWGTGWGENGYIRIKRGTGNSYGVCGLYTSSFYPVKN

[11] = biological target: SARS-CoV 3CLpro (Severe acute respiratory syndrome coronavirus, UniProt P0C6U8); experiment: biochemical; settings: read-out: residual activity of 3CLpro

Chain of cathepsin L (P07711 114-333, species assumed): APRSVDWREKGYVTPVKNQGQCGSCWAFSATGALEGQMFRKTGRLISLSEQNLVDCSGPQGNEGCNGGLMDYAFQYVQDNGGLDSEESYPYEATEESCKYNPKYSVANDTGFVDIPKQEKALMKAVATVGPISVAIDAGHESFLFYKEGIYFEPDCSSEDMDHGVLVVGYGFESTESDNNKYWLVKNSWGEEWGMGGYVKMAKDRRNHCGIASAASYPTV
Chain of cathepsin S (P25774 115-331): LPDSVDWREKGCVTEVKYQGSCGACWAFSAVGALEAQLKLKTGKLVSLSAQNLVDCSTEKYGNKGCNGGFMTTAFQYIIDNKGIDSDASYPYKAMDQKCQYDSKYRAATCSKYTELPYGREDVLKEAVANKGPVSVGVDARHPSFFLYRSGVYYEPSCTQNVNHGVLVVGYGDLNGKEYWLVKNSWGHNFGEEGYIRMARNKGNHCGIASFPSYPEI

| SMILES | IC50 [1] [µM] | inhibition of the deubiquitinating activity of PLpro [2] | enzymatic activity after gel filtration of the inhibited enzyme (reversibility) [3] | inhibition pattern [4] | kcat [4] [s⁻¹] | Ki [4] | binding mechanism [5] | kmax [5] | kmax of inactivation [5] [ms^−1] | remaining activity at 200 µM [5] [%] | inhibition of cathepsin B [6] | inhibition of cathepsin K [7] | inhibition of cathepsin L [8] | inhibition of cathepsin S [9] | inhibition of papain [10] | remaining activity at 200 µM [11] [%] | inhibitory activity against PLpro [1] |
| --- | --- | --- | --- | --- | --- | --- | --- | --- | --- | --- | --- | --- | --- | --- | --- | --- | --- |
| Sc1ncnc2nc[nH]c12 [compound 1, 6-Mercaptopurine] | 21.6 ± 1.8 | effectively inhibited | restored | competitive | 0.13 ± 0.01 | 19 µM and 19.2 µM | slow-binding inhibitors | 1.2 ± 0.1 10^−4 s^−1 | 0.12 | < 5 | not effective inhibitors | not effective inhibitors | not effective inhibitors | not effective inhibitors | not effective inhibitors |  |  |
| Nc1nc2nc[nH]c2c(=S)[nH]1 [compound 2, 6-Thioguanine] | 5 ± 1.7 | effectively inhibited | restored | competitive | 0.14 ± 0.02 | 13 ± 2.8 µM | slow-binding inhibitors | 9.2 ± 0.9 10^−4 s^−1 | 0.92 | < 5 | not effective inhibitors | not effective inhibitors | not effective inhibitors | not effective inhibitors | not effective inhibitors | 25 |  |
| O=c1[nH]cnc2nc[nH]c12 [compound 3, Hypoxanthine] |  |  |  |  |  |  |  |  |  |  |  |  |  |  |  |  | devoid of inhibitory activity |
| CSc1ncnc2nc[nH]c12 [compound 4, 6-Methyl-mercaptopurine] |  |  |  |  |  |  |  |  |  |  |  |  |  |  |  |  | devoid of inhibitory activity |
| CCN1C(=O)C=CC1=O [compound 6, N-ethylmaleimide] | 4.4 ± 1 |  |  |  |  |  |  |  |  |  |  |  |  |  |  |  |  |
